In ChEMBL document CHEMBL5724914, “Linking interpersonal differences in gut microbiota composition and drug biotransformation activity” (2024):

Key:
[1] = The drug is tested on Z-022 corresponding to mouse gut metagenome with ENA study accession number: PRJEB37062 and ENA sample accession number: ERS12561821 for biotransformation under anaerobic condition. The drug concentrations were measured over 9 timepoints collected between 0 and 24 hours of incubation by liquid-chromatography-coupled mass spectrometry (LC–MS); details: 2 µM
[2] = The drug is tested on WLS-077 corresponding to human gut metagenome with ENA study accession number: PRJEB37062 and ENA sample accession number: ERS12561750 for biotransformation under anaerobic condition. The drug concentrations were measured over 9 timepoints collected between 0 and 24 hours of incubation by liquid-chromatography-coupled mass spectrometry (LC–MS); details: 2 µM
[3] = human gut metagenome, 24 h, 2 µM
[4] = The drug is tested on WLS-039 corresponding to human gut metagenome with ENA study accession number: PRJEB37062 and ENA sample accession number: ERS12561746 for biotransformation under anaerobic condition. The drug concentrations were measured over 9 timepoints collected between 0 and 24 hours of incubation by liquid-chromatography-coupled mass spectrometry (LC–MS); details: 2 µM
[5] = human gut metagenome, 24 h, 2 µM; remark: listed apart in the source
[6] = The drug is tested on Z-003 corresponding to pig gut metagenome with ENA study accession number: PRJEB37062 and ENA sample accession number: ERS12561803 for biotransformation under anaerobic condition. The drug concentrations were measured over 9 timepoints collected between 0 and 24 hours of incubation by liquid-chromatography-coupled mass spectrometry (LC–MS); details: 2 µM
[7] = The drug is tested on WLS-350 corresponding to human gut metagenome with ENA study accession number: PRJEB37062 and ENA sample accession number: ERS12561789 for biotransformation under anaerobic condition. The drug concentrations were measured over 9 timepoints collected between 0 and 24 hours of incubation by liquid-chromatography-coupled mass spectrometry (LC–MS); details: 2 µM
[8] = The drug is tested on WLS-086 corresponding to human gut metagenome with ENA study accession number: PRJEB37062 and ENA sample accession number: ERS12561752 for biotransformation under anaerobic condition. The drug concentrations were measured over 9 timepoints collected between 0 and 24 hours of incubation by liquid-chromatography-coupled mass spectrometry (LC–MS); details: 2 µM
[9] = The drug is tested on Z-025 corresponding to rabbit gut metagenome with ENA study accession number: PRJEB37062 and ENA sample accession number: ERS12561824 for biotransformation under anaerobic condition. The drug concentrations were measured over 9 timepoints collected between 0 and 24 hours of incubation by liquid-chromatography-coupled mass spectrometry (LC–MS); details: 2 µM
[10] = The drug is tested on WLS-038 corresponding to human gut metagenome with ENA study accession number: PRJEB37062 and ENA sample accession number: ERS12561745 for biotransformation under anaerobic condition. The drug concentrations were measured over 9 timepoints collected between 0 and 24 hours of incubation by liquid-chromatography-coupled mass spectrometry (LC–MS); details: 2 µM
[11] = The drug is tested on Z-021 corresponding to metagenome with ENA study accession number: PRJEB37062 and ENA sample accession number: ERS12561820 for biotransformation under anaerobic condition. The drug concentrations were measured over 9 timepoints collected between 0 and 24 hours of incubation by liquid-chromatography-coupled mass spectrometry (LC–MS); details: 2 µM
[12] = The drug is tested on Z-024 corresponding to pig gut metagenome with ENA study accession number: PRJEB37062 and ENA sample accession number: ERS12561823 for biotransformation under anaerobic condition. The drug concentrations were measured over 9 timepoints collected between 0 and 24 hours of incubation by liquid-chromatography-coupled mass spectrometry (LC–MS); details: 2 µM
[13] = human gut metagenome, 24 h, 2 µM; remark: listed apart in the source
[14] = human gut metagenome, 24 h, 2 µM; remark: listed apart in the source
[15] = The drug is tested on WLS-240 corresponding to human gut metagenome with ENA study accession number: PRJEB37062 and ENA sample accession number: ERS12561773 for biotransformation under anaerobic condition. The drug concentrations were measured over 9 timepoints collected between 0 and 24 hours of incubation by liquid-chromatography-coupled mass spectrometry (LC–MS); details: 2 µM
[16] = The drug is tested on WLS-069 corresponding to human gut metagenome with ENA study accession number: PRJEB37062 and ENA sample accession number: ERS12561748 for biotransformation under anaerobic condition. The drug concentrations were measured over 9 timepoints collected between 0 and 24 hours of incubation by liquid-chromatography-coupled mass spectrometry (LC–MS); details: 2 µM
[17] = human gut metagenome, 24 h, 2 µM; remark: listed apart in the source
[18] = human gut metagenome, 24 h, 2 µM; remark: listed apart in the source
[19] = human gut metagenome, 24 h, 2 µM; remark: listed apart in the source
[20] = human gut metagenome, 24 h, 2 µM; remark: listed apart in the source
Note: call rule not given here.

Row | Structure (SMILES) | Bacterial Biotransformation [1] | Bacterial Biotransformation [2] | Bacterial Biotransformation [3] | Bacterial Biotransformation [4] | Bacterial Biotransformation [5] | Bacterial Biotransformation [6] | Bacterial Biotransformation [7] | Bacterial Biotransformation [8] | Bacterial Biotransformation [9] | Bacterial Biotransformation [10] | Bacterial Biotransformation [11] | Bacterial Biotransformation [12] | Bacterial Biotransformation [13] | Bacterial Biotransformation [14] | Bacterial Biotransformation [15] | Bacterial Biotransformation [16] | Bacterial Biotransformation [17] | Bacterial Biotransformation [18] | Bacterial Biotransformation [19] | Bacterial Biotransformation [20]
1 | CCCCC1=NC2(CCCC2)C(=O)N1Cc1ccc(-c2ccccc2-c2nnn[nH]2)cc1 [IRBESARTAN] | Compound NOT metabolized | Compound metabolized | Compound metabolized | Compound metabolized | Compound metabolized | Compound metabolized | Compound metabolized | Compound metabolized | Compound NOT metabolized | Compound metabolized | Compound NOT metabolized | Compound metabolized | Compound metabolized | Compound metabolized | Compound metabolized | Compound metabolized | Compound metabolized | Compound metabolized | Compound metabolized | Compound metabolized
2 | NC(CO)(CO)CO.O=C(c1ccccc1)c1ccc2n1CCC2C(=O)O (stereo not given) [KETOROLAC TROMETHAMINE] | Compound metabolized | Compound metabolized | Compound metabolized | Compound metabolized | Compound metabolized | Compound metabolized | Compound metabolized | Compound metabolized | Compound NOT metabolized | Compound metabolized | Compound metabolized | Compound metabolized | Compound metabolized | Compound metabolized | Compound metabolized | Compound metabolized | Compound metabolized | Compound metabolized | Compound metabolized | Compound metabolized
3 | CC[C@H](C)C(=O)O[C@H]1C[C@@H](C)C=C2C=C[C@H](C)[C@H](CC[C@@H]3C[C@@H](O)CC(=O)O3)[C@H]21 [LOVASTATIN] | Compound metabolized | Compound NOT metabolized | Compound NOT metabolized | Compound NOT metabolized | Compound NOT metabolized | Compound NOT metabolized | Compound NOT metabolized | Compound NOT metabolized | Compound metabolized | Compound NOT metabolized | Compound metabolized | Compound metabolized | Compound NOT metabolized | Compound NOT metabolized | Compound NOT metabolized | Compound NOT metabolized | Compound NOT metabolized | Compound NOT metabolized | Compound NOT metabolized | Compound NOT metabolized

Further lines, results first:

Row | Bacterial Biotransformation [1] | Bacterial Biotransformation [2] | Bacterial Biotransformation [3] | Bacterial Biotransformation [4] | Bacterial Biotransformation [5] | Bacterial Biotransformation [6] | Bacterial Biotransformation [7] | Bacterial Biotransformation [8] | Bacterial Biotransformation [9] | Bacterial Biotransformation [10] | Bacterial Biotransformation [11] | Bacterial Biotransformation [12] | Bacterial Biotransformation [13] | Bacterial Biotransformation [14] | Bacterial Biotransformation [15] | Bacterial Biotransformation [16] | Bacterial Biotransformation [17] | Bacterial Biotransformation [18] | Bacterial Biotransformation [19] | Bacterial Biotransformation [20] | Structure (SMILES)
4 | Compound metabolized | Compound NOT metabolized | Compound NOT metabolized | Compound NOT metabolized | Compound NOT metabolized | Compound NOT metabolized | Compound NOT metabolized | Compound metabolized | Compound NOT metabolized | Compound NOT metabolized | Compound metabolized | Compound metabolized | Compound metabolized | Compound NOT metabolized | Compound metabolized | Compound NOT metabolized | Compound metabolized | Compound metabolized | Compound NOT metabolized | Compound NOT metabolized | CN1C(=O)CC(C)(c2ccccc2)C1=O (stereo not given) [METHSUXIMIDE]
5 | Compound metabolized | Compound NOT metabolized | Compound NOT metabolized | Compound NOT metabolized | Compound NOT metabolized | Compound NOT metabolized | Compound NOT metabolized | Compound metabolized | Compound NOT metabolized | Compound NOT metabolized | Compound NOT metabolized | Compound NOT metabolized | Compound metabolized | Compound NOT metabolized | Compound NOT metabolized | Compound metabolized | Compound NOT metabolized | Compound metabolized | Compound metabolized | Compound NOT metabolized | CNC(=C[N+](=O)[O-])NCCSCc1csc(CN(C)C)n1 [NIZATIDINE]
